# Measured values as given in patent US20220331303A1, “USE OF AN OREXIN 2 RECEPTOR AGONIST FOR THE TREATMENT OF EXCESSIVE SLEEPINESS” (Takeda Pharmaceutical Company Limited, priority 2019, published 2022).
# Experiment: Plasma PK of Compound A after a single 9-hour IV infusion in sleep-deprived healthy male subjects
# Type: in vivo, human
# Description: This was a phase 1b, single-center, randomized, double-blind, double-dummy, placebo- and active-controlled, 4-period Williams design crossover study to evaluate the PK, PD, and safety of Compound A in sleep-deprived healthy volunteers. Compound A was administered as a 9-hour IV infusion.
# Healthy adult male subjects aged 18 to 40 years, inclusive, who satisfied the inclusion and exclusion criteria were enrolled in the trial. On Day 1 of treatment period 1, eligible subjects were equally randomized to 4 treatment sequence groups (sequence 1 to 4) which defined the order of administration for Compound A LD, Compound A HD (both delivered as a 9-hour IV infusion), modafinil 300 mg, and placebo.
# During the day before dosing on Day 1, participants were administered the KSS at scheduled timepoints. A practice MWT session was performed on Day 1 treatment period 1 (only once during the entire study) to familiarize subjects with the procedures. Study drug was administered in the clinic in the evening on Day 1 of each treatment period. Subjects underwent the MWT and KSS at specified timepoints after the start of the infusion. Subjects were required to stay awake between the MWT tests. Following completion of the IV infusion on Day 2, subjects underwent an additional MWT test. When the final MWT test and cognitive testing were completed, subjects were allowed to sleep (recovery sleep) for approximately 6 hours. PSG recording was collected during this time. Subjects were discharged from the unit after completion on Day 2 with continuing actigraphy upon discharge (to begin on Day −6 before the next treatment period). The interval between each subsequent treatment period was at least 7 days to ensure that the subject's circadian rhythm had returned to a normal cycle. Subject's vital signs, including BP, were monitored during the dosing and testing period. Blood samples for determination of Compound A plasma concentrations were collected at specified timepoints on Days 1 and 2 of each treatment period. Subjects completed the Columbia-Suicide Severity Rating Scale (C-SSRS) during screening, before study drug administration, and before discharge on Day 2 of each treatment period.
# Plasma concentrations were tabulated, and descriptive statistics were calculated for each Compound A dose level and are listed in Tables 3-6 for Compound A. The mean plasma concentration versus time plots for Compound A are shown in FIG. 1.
# [1] = 44 mg 9-h IV infusion, 0.17 h post infusion end
# [2] = 44 mg 9-h IV infusion, 0.5 h post infusion end
# [3] = 44 mg 9-h IV infusion, 1 h post infusion end
# [4] = 44 mg 9-h IV infusion, 2 h post infusion end
# [5] = 44 mg 9-h IV infusion, 3 h post infusion end
# [6] = 44 mg 9-h IV infusion, 4 h post infusion end
# [7] = 44 mg 9-h IV infusion, 6 h post infusion end
# [8] = 44 mg 9-h IV infusion, 9 h post infusion end
# [9] = 44 mg 9-h IV infusion, Discharge (post infusion end)
# [10] = 44 mg [LD] single 9-hour IV infusion
# [11] = 112 mg 9-h IV infusion, 0.17 h post infusion end
# [12] = 112 mg 9-h IV infusion, 0.5 h post infusion end
# [13] = 112 mg 9-h IV infusion, 1 h post infusion end
# [14] = 112 mg 9-h IV infusion, 1 h post infusion start
# [15] = 112 mg 9-h IV infusion, 2 h post infusion end
# [16] = 112 mg 9-h IV infusion, 2 h post infusion start
# [17] = 112 mg 9-h IV infusion, 4 h post infusion start
# [18] = 112 mg 9-h IV infusion, 6 h post infusion start
# [19] = 112 mg 9-h IV infusion, 9 h post infusion start
# [20] = 112 mg 9-h IV infusion, Discharge (post infusion end)
# [21] = 112 mg [HD] single 9-hour IV infusion
structure (smiles),measurement,setting,value
"COC(=O)N1CCC[C@H](NS(C)(=O)=O)[C@@H]1CO[C@H]1CC[C@@H](c2ccccc2)CC1 [Compound A, methyl (2R,3S)-3-((methylsulfonyl)amino)-2-(((cis-4-phenylcyclohexyl)oxy)methyl)piperidine-1-carboxylate]",Plasma Concentration Mean,[1],76.86 ng/mL
same,Plasma concentration (GM),[1],76.07 ng/mL
same,Plasma concentration (Median),[1],74.80 ng/mL
same,Plasma Concentration Mean,[2],50.78 ng/mL
same,Plasma concentration (GM),[2],49.49 ng/mL
same,Plasma concentration (Median),[2],49.10 ng/mL
same,Plasma Concentration Mean,[3],40.73 ng/mL
same,Plasma concentration (GM),[3],39.05 ng/mL
same,Plasma concentration (Median),[3],38.15 ng/mL
same,Plasma Concentration Mean,[4],22.23 ng/mL
same,Plasma concentration (GM),[4],21.44 ng/mL
same,Plasma concentration (Median),[4],21.00 ng/mL
same,Plasma Concentration Mean,[5],20.67 ng/mL
same,Plasma concentration (GM),[5],19.74 ng/mL
same,Plasma concentration (Median),[5],20.35 ng/mL
same,Plasma Concentration Mean,[6],16.28 ng/mL
same,Plasma concentration (GM),[6],15.56 ng/mL
same,Plasma concentration (Median),[6],17.25 ng/mL
same,Plasma Concentration Mean,[7],10.32 ng/mL
same,Plasma concentration (GM),[7],9.85 ng/mL
same,Plasma concentration (Median),[7],10.75 ng/mL
same,Plasma Concentration Mean,[8],5.56 ng/mL
same,Plasma concentration (GM),[8],5.06 ng/mL
same,Plasma concentration (Median),[8],5.06 ng/mL
same,Plasma Concentration Mean,[9],4.95 ng/mL
same,Plasma concentration (GM),[9],4.60 ng/mL
same,Plasma concentration (Median),[9],4.78 ng/mL
same,Ceoi (GM),[10],102.5 ng/mL
same,Ceoi (Mean),[10],103.4 ng/mL
same,Ceoi (Median),[10],101.0 ng/mL
same,t1/2z (Mean),[10],3.134 h
same,t1/2z (Median),[10],3.020 h
same,Plasma Concentration Mean,[11],196.83 ng/mL
same,Plasma concentration (Median),[11],197.50 ng/mL
same,Plasma Concentration Mean,[12],124.21 ng/mL
same,Plasma concentration (Median),[12],121.50 ng/mL
same,Plasma Concentration Mean,[13],100.48 ng/mL
same,Plasma concentration (Median),[13],96.90 ng/mL
same,Plasma Concentration Mean,[14],162.56 ng/mL
same,Plasma concentration (GM),[14],155.56 ng/mL
same,Plasma concentration (Median),[14],151.00 ng/mL
same,Plasma Concentration Mean,[15],58.92 ng/mL
same,Plasma concentration (Median),[15],61.40 ng/mL
same,Plasma Concentration Mean,[16],187.06 ng/mL
same,Plasma concentration (GM),[16],185.71 ng/mL
same,Plasma concentration (Median),[16],179.50 ng/mL
same,Plasma Concentration Mean,"112 mg 9-h IV infusion, 3 h post infusion end",53.01 ng/mL
same,Plasma Concentration Mean,"112 mg 9-h IV infusion, 4 h post infusion end",41.98 ng/mL
same,Plasma Concentration Mean,[17],217.61 ng/mL
same,Plasma concentration (GM),[17],216.56 ng/mL
same,Plasma concentration (Median),[17],210.00 ng/mL
same,Plasma Concentration Mean,"112 mg 9-h IV infusion, 6 h post infusion end",24.24 ng/mL
same,Plasma Concentration Mean,[18],234.06 ng/mL
same,Plasma concentration (GM),[18],232.92 ng/mL
same,Plasma concentration (Median),[18],229.50 ng/mL
same,Plasma Concentration Mean,"112 mg 9-h IV infusion, 9 h post infusion end",13.78 ng/mL
same,Plasma Concentration Mean,[19],253.39 ng/mL
same,Plasma concentration (GM),[19],250.96 ng/mL
same,Plasma concentration (Median),[19],252.50 ng/mL
same,Plasma Concentration Mean,[20],13.01 ng/mL
same,Plasma concentration (GM),[20],12.09 ng/mL
same,Plasma concentration (Median),[20],11.50 ng/mL
same,Ceoi (GM),[21],251.0 ng/mL
same,Ceoi (Mean),[21],253.4 ng/mL
same,Ceoi (Median),[21],252.5 ng/mL
same,t1/2z (Mean),[21],3.252 h
same,t1/2z (Median),[21],3.165 h
